Key:
[1] = molecular target: T1, Pseudomonas aeruginosa PMM/PGM (PaPMM) (Pseudomonas aeruginosa, UniProt P26276); test: product formation in coupled G6PDH assay; ESI-MS dephosphorylation of catalytic serine ([…]); assay type: biochemical
T1 construct: gene algC

[2] = molecular target: T2, human phosphoglucomutase 1 (hPGM1) (Homo sapiens, UniProt P36871); test: ESI-MS of intact purified protein:[…] phosphorylation of active site serine after incubation; assay type: biochemical
T2 construct: gene PGM1
T2 sequence (P36871 1-562): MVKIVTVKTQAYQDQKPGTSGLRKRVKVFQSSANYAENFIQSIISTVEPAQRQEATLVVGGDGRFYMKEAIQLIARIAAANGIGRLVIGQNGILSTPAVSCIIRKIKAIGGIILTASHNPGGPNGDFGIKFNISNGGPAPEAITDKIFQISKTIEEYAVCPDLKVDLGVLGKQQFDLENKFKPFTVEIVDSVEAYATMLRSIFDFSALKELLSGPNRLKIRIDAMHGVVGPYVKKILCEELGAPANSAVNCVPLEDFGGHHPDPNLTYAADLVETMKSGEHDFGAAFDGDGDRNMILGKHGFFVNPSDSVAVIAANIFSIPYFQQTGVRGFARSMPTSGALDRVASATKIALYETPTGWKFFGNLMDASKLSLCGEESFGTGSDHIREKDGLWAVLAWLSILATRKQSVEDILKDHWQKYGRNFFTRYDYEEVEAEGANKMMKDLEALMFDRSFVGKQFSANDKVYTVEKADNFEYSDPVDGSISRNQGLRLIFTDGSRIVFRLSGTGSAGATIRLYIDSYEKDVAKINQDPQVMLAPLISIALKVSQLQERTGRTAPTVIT

[3] = molecular target: T1, Pseudomonas aeruginosa PMM/PGM (PaPMM); test: coupled G6PDH enzyme assay, noncompetitive inhibition fit; also ESI-MS dephosphorylation of active site serine; assay type: biochemical
[4] = system: O=P(O)(O)O[C@H]1O[C@H](CO)[C@@H](O)[C@H](O)[C@H]1O; test: purified protein
[5] = molecular target: T1, Pseudomonas aeruginosa PMM/PGM (PaPMM); test: coupled G6PDH enzyme assay, competitive inhibition fit (text prints Ki in μM; Fig. […] legend prints mM); assay type: biochemical

T1 sequence (P26276 2-463): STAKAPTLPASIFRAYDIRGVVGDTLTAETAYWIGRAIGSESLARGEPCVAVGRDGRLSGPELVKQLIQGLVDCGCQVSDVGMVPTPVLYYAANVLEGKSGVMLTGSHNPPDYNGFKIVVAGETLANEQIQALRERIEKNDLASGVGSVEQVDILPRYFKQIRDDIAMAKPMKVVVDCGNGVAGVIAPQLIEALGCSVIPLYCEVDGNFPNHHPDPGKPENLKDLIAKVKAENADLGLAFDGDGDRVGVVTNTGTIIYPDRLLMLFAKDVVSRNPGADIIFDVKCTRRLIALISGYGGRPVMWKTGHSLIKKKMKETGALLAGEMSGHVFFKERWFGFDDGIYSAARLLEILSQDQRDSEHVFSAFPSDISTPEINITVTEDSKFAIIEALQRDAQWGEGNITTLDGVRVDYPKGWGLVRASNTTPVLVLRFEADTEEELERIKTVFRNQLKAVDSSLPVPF

## O=C[C@H](O)[C@@H](O)[C@H](O)[C@H](O)COP(=O)(O)O [G6P, glucose 6-phosphate]
[1]
  product formation in coupled G6PDH assay; ESI-MS dephosphorylation of catalytic: Enzymatic activity of PaPMM was quantified by measuring the formation of glucose 6-phosphate (G6P)

## O=C(COP(=O)(O)O)[C@@H](O)[C@H](O)[C@H](O)COP(=O)(O)O [F16P, fructose 1,6-bisphosphate]
[2]
  ESI-MS of intact purified protein: 92% phosphorylation of active site serine aft: Treatment of hPGM1 with F16P was done herein

## N[C@H]1C(OP(=O)(O)O)O[C@H](CO)[C@@H](O)[C@@H]1O (some centres unmarked) [GlcN1P, glucosamine 1-phosphate]
[3]
  Ki: 307 ± 29 µM

## Pseudomonas aeruginosa PMM/PGM (PaPMM) (Pseudomonas aeruginosa PAO1)
[4]
  Km: 28 ± 2.8 µM

## O=P(O)(O)O[C@H]1OC[C@@H](O)[C@H](O)[C@H]1O [X1P, xylose 1-phosphate]
[5]
  Ki: 8.6 ± 0.3 µM
